Assay: xn = mol fraction of the nth substance listed
Conditions: Liquid; for mass density: Bellows volumetry; for Critical density: bellows voluometer

N [ammonia] + O
Conditions | mass density [kg/m3]
436.56 K, 14191 kPa, x1 = 0.9098 | 263.5
436.56 K, 14208 kPa, x1 = 0.9098 | 264.8
436.56 K, 14217 kPa, x1 = 0.9098 | 265.4
436.56 K, 14225 kPa, x1 = 0.9098 | 265.9
478.58 K, 17311 kPa, x1 = 0.7757 | 284.3
478.58 K, 17320 kPa, x1 = 0.7757 | 284.7
478.58 K, 17329 kPa, x1 = 0.7757 | 285.1
478.58 K, 17347 kPa, x1 = 0.7757 | 285.8
503.06 K, 18697 kPa, x1 = 0.6808 | 294.8
503.06 K, 18706 kPa, x1 = 0.6808 | 295.2
503.06 K, 18715 kPa, x1 = 0.6808 | 295.6
503.06 K, 18724 kPa, x1 = 0.6808 | 296
503.06 K, 18733 kPa, x1 = 0.6808 | 296.3
503.06 K, 18743 kPa, x1 = 0.6808 | 296.6
503.06 K, 18751 kPa, x1 = 0.6808 | 297

Conditions | Critical density [kg/m3]
x1 = 0.6808 | 294.6
x1 = 0.7757 | 284
x1 = 0.9098 | 262.9

— the NIST ThermoML archive (doi:10.1016/j.jct.2008.05.017)
